Columns and labels:
[1] = tested on: livid amaranth; test: Soil treatment test for upland field; format: in vivo, Amaranthus lividus; parameters: key: 0 = normal development, 5 = all killed; conditions: 500 g/ha, 3 weeks, glass house 25° C.
Experimental: (§1) The herbicidal effects are evaluated according to the following 6 ranks as compared with non-treated district. (0: normal development, 1: Less damaged, 2: Slightly damaged, 3: Moderately damaged, 4: Severely damaged, 5: All killed). Incidentally, “-” in the column means not investigated.
(§2) Wagner pots, each having an area of 1/5000 are, were packed with Ube soil (alluvial soil), and then each seed of corn, soybean, cotton, wheat, solgum, sugar beat, Large crabgrass, barnyard grass, green foxtail, blackgrass, annual bluegrass, common lambsquarters, livid amaranth, velvetleaf, morning glory, common Cocklebur (Xanthium strumarium) and sicklepod (Cassia obtusifolia) were planted and covered with soil.
(§3) Each wettable powder of the desired compounds (I) shown in Tables 1 to 21, 24, 25, 28 and 29 prepared in accordance with Example 2 was diluted with water containing a surfactant (0.05%) and uniformly sprayed on the surface of each soil so that an effective concentration of the compound (I) in each herbicide became 500 g/ha.
(§4) These plants were controlled in a glass house at an average temperature of 25° C. for 3 weeks, and then herbicidal effects thereof were investigated.
(§5) The herbicidal effects were evaluated according to the evaluation method described in the above (1).

[2] = tested on: annual bluegrass; test: Soil treatment test for upland field; format: in vivo, Poa annua; parameters: key: 0 = normal development, 5 = all killed; conditions: 500 g/ha, 3 weeks, glass house 25° C.
Experimental: as §1, §2, §3, §4, §5

[3] = tested on: corn; test: Soil treatment test for upland field; format: in vivo; parameters: key: 0 = normal development, 5 = all killed; conditions: 500 g/ha, 3 weeks, glass house 25° C.
Experimental: as §1, §2, §3, §4, §5

[4] = tested on: wheat; test: Soil treatment test for upland field; format: in vivo; parameters: key: 0 = normal development, 5 = all killed; conditions: 500 g/ha, 3 weeks, glass house 25° C.
Experimental: as §1, §2, §3, §4, §5

[5] = tested on: soybean; test: Soil treatment test for upland field; format: in vivo; parameters: key: 0 = normal development, 5 = all killed; conditions: 500 g/ha, 3 weeks, glass house 25° C.
Experimental: as §1, §2, §3, §4, §5

[6] = tested on: common lambsquarters; test: Soil treatment test for upland field; format: in vivo, Chenopodium album; parameters: key: 0 = normal development, 5 = all killed; conditions: 500 g/ha, 3 weeks, glass house 25° C.
Experimental: as §1, §2, §3, §4, §5

[7] = tested on: livid amaranth; test: Foliar spread test for upland field; format: in vivo, Amaranthus lividus; parameters: key: 0 = normal development, 5 = all killed (6 ranks vs. untreated); conditions: foliar spray, 500 ppm, 3 weeks, glass house 25° C.
Experimental: as §1
(§6) Wagner pots, each having an area of 1/5000 are, were packed with volcanic ash soil and then each seed of corn, soybean, cotton, wheat, solgum, sugar beat, Large crabgrass, barnyardgrjass, green foxtail, blackgrass, annual bluegrass, common lambsquarters, livid amaranth, velvetleaf, morning glory, Xanthium pensylvanicum and Cassia obtusifolia was planted, covered with soil and grown in a glass house at an average temperature of 25° C. for about 2 weeks.
(§7) Each wettable powder of the desired compounds (I) shown in Tables 1 to 21, 24, 25, 28 and 29 prepared in accordance with Example 2 was diluted to 500 ppm with water containing a surfactant (0.5%) and then uniformly sprayed on the above respective plants.
(§8) After these plants were controlled in a glass house at an average temperature of 25° C. for 3 weeks, the herbicidal effects thereof were investigated.
as §5

[8] = tested on: corn; test: Foliar spread test for upland field; format: in vivo; parameters: key: 0 = normal development, 5 = all killed (6 ranks vs. untreated); conditions: foliar spray, 500 ppm, 3 weeks, glass house 25° C.
Experimental: as §1, §6, §7, §8, §5

[9] = tested on: wheat; test: Foliar spread test for upland field; format: in vivo; parameters: key: 0 = normal development, 5 = all killed (6 ranks vs. untreated); conditions: foliar spray, 500 ppm, 3 weeks, glass house 25° C.
Experimental: as §1, §6, §7, §8, §5

[10] = tested on: green foxtail; test: Foliar spread test for upland field; format: in vivo, Setaria viridis; parameters: key: 0 = normal development, 5 = all killed (6 ranks vs. untreated); conditions: foliar spray, 500 ppm, 3 weeks, glass house 25° C.
Experimental: as §1, §6, §7, §8, §5

[11] = tested on: Large crabgrass; test: Soil treatment test for upland field; format: in vivo, Digitaria adscendens; parameters: key: 0 = normal development, 5 = all killed; conditions: 500 g/ha, 3 weeks, glass house 25° C.
Experimental: as §1, §2, §3, §4, §5

[12] = tested on: common lambsquarters; test: Foliar spread test for upland field; format: in vivo, Chenopodium album; parameters: key: 0 = normal development, 5 = all killed (6 ranks vs. untreated); conditions: foliar spray, 500 ppm, 3 weeks, glass house 25° C.
Experimental: as §1, §6, §7, §8, §5

[13] = tested on: green foxtail; test: Soil treatment test for upland field; format: in vivo, Setaria viridis; parameters: key: 0 = normal development, 5 = all killed; conditions: 500 g/ha, 3 weeks, glass house 25° C.
Experimental: as §1, §2, §3, §4, §5

[14] = tested on: blackgrass; test: Foliar spread test for upland field; format: in vivo, Alopecurus aegualis; parameters: key: 0 = normal development, 5 = all killed (6 ranks vs. untreated); conditions: foliar spray, 500 ppm, 3 weeks, glass house 25° C.
Experimental: as §1, §6, §7, §8, §5

[15] = tested on: annual bluegrass; test: Foliar spread test for upland field; format: in vivo, Poa annua; parameters: key: 0 = normal development, 5 = all killed (6 ranks vs. untreated); conditions: foliar spray, 500 ppm, 3 weeks, glass house 25° C.
Experimental: as §1, §6, §7, §8, §5

[16] = tested on: morning glory; test: Soil treatment test for upland field; format: in vivo, Ipomoea spps.; parameters: key: 0 = normal development, 5 = all killed; conditions: 500 g/ha, 3 weeks, glass house 25° C.
Experimental: as §1, §2, §3, §4, §5

[17] = tested on: morning glory; test: Foliar spread test for upland field; format: in vivo, Ipomoea spps.; parameters: key: 0 = normal development, 5 = all killed (6 ranks vs. untreated); conditions: foliar spray, 500 ppm, 3 weeks, glass house 25° C.
Experimental: as §1, §6, §7, §8, §5

[18] = tested on: velvetleaf; test: Foliar spread test for upland field; format: in vivo, Abutilon theophrasti; parameters: key: 0 = normal development, 5 = all killed (6 ranks vs. untreated); conditions: foliar spray, 500 ppm, 3 weeks, glass house 25° C.
Experimental: as §1, §6, §7, §8, §5

[19] = tested on: blackgrass; test: Soil treatment test for upland field; format: in vivo, Alopecurus aegualis; parameters: key: 0 = normal development, 5 = all killed; conditions: 500 g/ha, 3 weeks, glass house 25° C.
Experimental: as §1, §2, §3, §4, §5

[20] = tested on: solgum; test: Soil treatment test for upland field; format: in vivo; parameters: key: 0 = normal development, 5 = all killed; conditions: 500 g/ha, 3 weeks, glass house 25° C.
Experimental: as §1, §2, §3, §4, §5

[21] = tested on: sugar beat; test: Soil treatment test for upland field; format: in vivo; parameters: key: 0 = normal development, 5 = all killed; conditions: 500 g/ha, 3 weeks, glass house 25° C.
Experimental: as §1, §2, §3, §4, §5

[22] = tested on: barnyardgrjass; test: Foliar spread test for upland field; format: in vivo, Eschinochloa crusgalli; parameters: key: 0 = normal development, 5 = all killed (6 ranks vs. untreated); conditions: foliar spray, 500 ppm, 3 weeks, glass house 25° C.
Experimental: as §1, §6, §7, §8, §5

[23] = tested on: solgum; test: Foliar spread test for upland field; format: in vivo; parameters: key: 0 = normal development, 5 = all killed (6 ranks vs. untreated); conditions: foliar spray, 500 ppm, 3 weeks, glass house 25° C.
Experimental: as §1, §6, §7, §8, §5

[24] = tested on: sugar beat; test: Foliar spread test for upland field; format: in vivo; parameters: key: 0 = normal development, 5 = all killed (6 ranks vs. untreated); conditions: foliar spray, 500 ppm, 3 weeks, glass house 25° C.
Experimental: as §1, §6, §7, §8, §5

[25] = tested on: cotton; test: Foliar spread test for upland field; format: in vivo; parameters: key: 0 = normal development, 5 = all killed (6 ranks vs. untreated); conditions: foliar spray, 500 ppm, 3 weeks, glass house 25° C.
Experimental: as §1, §6, §7, §8, §5

[26] = tested on: soybean; test: Foliar spread test for upland field; format: in vivo; parameters: key: 0 = normal development, 5 = all killed (6 ranks vs. untreated); conditions: foliar spray, 500 ppm, 3 weeks, glass house 25° C.
Experimental: as §1, §6, §7, §8, §5

[27] = tested on: Large crabgrass; test: Foliar spread test for upland field; format: in vivo, Digitaria adscendens; parameters: key: 0 = normal development, 5 = all killed (6 ranks vs. untreated); conditions: foliar spray, 500 ppm, 3 weeks, glass house 25° C.
Experimental: as §1, §6, §7, §8, §5

[28] = tested on: velvetleaf; test: Soil treatment test for upland field; format: in vivo, Abutilon theophrasti; parameters: key: 0 = normal development, 5 = all killed; conditions: 500 g/ha, 3 weeks, glass house 25° C.
Experimental: as §1, §2, §3, §4, §5

[29] = tested on: barnyard grass; test: Soil treatment test for upland field; format: in vivo, Eschinochloa crusgalli; parameters: key: 0 = normal development, 5 = all killed; conditions: 500 g/ha, 3 weeks, glass house 25° C.
Experimental: as §1, §2, §3, §4, §5

SMILES | Effects Livid amaranth [1] | Effects Annual bluegrass [2] | Effects Corn [3] | Effects Wheat [4] | Effects Soybean [5] | Effects Common lambsquarters [6] | Effects Livid amaranth [7] | Effects Corn [8] | Effects Wheat [9] | Effects Green foxtail [10] | Effects Large crabgrass [11] | Effects Common lambsquarters [12] | Effects Green foxtail [13] | Effects Blackgrass [14] | Effects Annual bluegrass [15] | Effects Morning glory [16] | Effects Morning glory [17] | Effects Velvetleaf [18] | Effects Large crabgrass [27] | Effects Barnyardgrass [29] | further results
CCC(Oc1cc(C(F)(F)F)nn1C)c1nc2cc(Cl)ccc2o1 (centres unmarked) [Compound 1-e-2] | 5 | 3 | 0 | 0 | 0 | 2 | 4 | 1 | 1 | 2 | 3 | 3 | 3 |  |  |  |  |  |  |  | 
CCCC(Oc1cc(C)nc(SC)n1)c1nc2cc(C#N)c(F)cc2o1 (centres unmarked) [Compound 1-e-65] | 5 |  | 0 | 0 | 0 | 2 |  |  |  |  | 4 |  | 4 |  |  |  |  |  |  |  | 
CC/C(=C\c1cccc(C(F)(F)F)c1)c1nc2cc(Cl)ccc2o1 [I-c-55, (E)-2-(5-chlorobenzoxazol-2-yl)-1-(3-trifluoromethylphenyl)butene] | 5 | 5 | 1 | 0 | 4 | 5 | 4 | 3 | 3 | 5 | 5 | 5 | 5 | 4 | 4 | 5 | 5 | 4 | 4 | 5 | Effects Blackgrass [19]: 5; Effects Solgum [20]: 1; Effects Sugar beat [21]: 5; Effects Barnyardgrass [22]: 4; Effects Solgum [23]: 3; Effects Sugar beat [24]: 5; Effects Sotton [25]: 4; Effects Soybean [26]: 5; Effects Velvetleaf [28]: 5
CCCC(=Cc1cccc(C(F)(F)F)c1)c1nc2cc(F)c(F)cc2o1 [I-c-113] | 5 | 5 | 2 | 2 |  | 5 | 5 | 2 | 2 | 5 | 5 | 5 | 5 | 4 | 4 | 4 | 5 | 4 | 4 | 5 | Effects Blackgrass [19]: 5; Effects Solgum [20]: 2; Effects Sugar beat [21]: 5; Effects Barnyardgrass [22]: 3; Effects Solgum [23]: 3; Effects Sugar beat [24]: 5; Effects Sotton [25]: 5; Effects Soybean [26]: 5; Effects Velvetleaf [28]: 5
CC(=Cc1cccc(C(F)(F)F)c1)c1nc2cc(C#N)c(Cl)cc2o1 [I-c-141] | 5 | 5 | 0 | 0 |  | 5 | 5 | 2 | 1 | 5 | 5 | 5 | 5 | 1 | 3 | 5 | 5 | 4 | 3 | 4 | Effects Blackgrass [19]: 4; Effects Solgum [20]: 0; Effects Sugar beat [21]: 5; Effects Barnyardgrass [22]: 1; Effects Solgum [23]: 1; Effects Sugar beat [24]: 5; Effects Sotton [25]: 5; Effects Soybean [26]: 3; Effects Velvetleaf [28]: 5
CCC(Oc1cc(C(F)(F)F)on1)c1nc2cc(C#N)c(F)cc2o1 (centres unmarked) [I-e-40, 1-(5-cyano-6-fluorobenzoxazol-2-yl)-1-(5-trifluoromethylisoxazol-3-yloxy)propane] | 5 | 5 | 1 | 0 | 2 | 5 | 5 |  | 2 | 4 | 5 | 5 | 5 |  |  |  |  |  | 4 | 5 | 

From patent US7402548B2, “Benzoxazole compounds, process for producing the same and herbicides” (Kyoyu Agri Co., Ltd., priority 2000, dated 2008)
